Read-outs that look alike come from different tables or passages of the source.
Legend:
[1] = system: GABAB-GIRK currents in LHb neurons; assay type: cell-based, mice; conditions: LB100 0.1 μM in the bath; for I-baclofen current: mean±s.e.m.
cancer cells = conditions: cited from earlier work; for Anti-cancer activity when used alone: mouse model systems (Lu et al. 2009a)
LHb neurons = test: Current-clamp excitability (evoked action potentials, input-output curve) of LHb neurons in slices; assay type: cell-based, mice; conditions: LB100 0.1 μM in the bath
Procedure: Animals were anesthetized with Ketamine/Xylazine (50 mg/10 mg Kg-1 i.p.; Sigma-Aldrich, France). The preparation of LHb-containing brain slices was done in bubbled ice-cold 95% O2/5% CO2-equilibrated solution containing (in mM): cholineCl 110; glucose 25; NaHCO3 25; MgCl2 7; ascorbic acid 11.6; Na+-pyruvate 3.1; KCl 2.5; NaH2PO4 1.25; CaCl2 0.5. Sagittal slices (250 μm) were stored at room temperature in 95% O2/5% CO2-equilibrated artificial cerebrospinal fluid (ACSF) containing (in mM): NaCl 124; NaHCO3 26.2; glucose 11; KCl 2.5; CaCl2 2.5; MgCl2 1.3; NaH2PO4 1. Recordings (flow rate of 2.5 ml/min) were made under an Olympus-BX51 microscope (Olympus, France) at 32° C. Currents were amplified, filtered at 5 kHz and digitized at 20 kHz. Access resistance was monitored by a step of −4 mV (0.1 Hz). Experiments were discarded if the access resistance increased more than 20%.
The internal solution to measure GABAB-GIRK currents and neuronal excitability contained 140 mM potassium gluconate, 4 mM NaCl, 2 mM MgCl2, 1.1 mM EGTA, 5 mM HEPES, 2 mM Na2ATP, 5 mM sodium creatine phosphate, and 0.6 mM Na3GTP (pH 7.3), with KOH. When we measured the synaptic inhibitory or excitatory release the internal solution contained (in mM): CsCl 130; NaCl 4; MgCl2 2; EGTA 1.1; HEPES 5; Na2ATP 2; Na+-creatine-phosphate 5; Na3GTP 0.6, and spermine 0.1. The liquid junction potential was −3 mV. For cell-attached recordings the internal solution consisted in ACSF.
For the Okadaic acid (OA) and the CaMKII inhibitor KN93 experiments, respectively 100 nM of OA or 10 μM of KN93 were added in the internal solution. For the PP2A inhibitor LB100 experiments, LB100 (0.1 μM) was applied in the bath. Miniature excitatory postsynaptic currents (mEPSCs) were recorded in voltage-clamp mode at −60 mV in presence of bicuculine (10 μM) and TTX (1 μM). Miniature inhibitory postsynaptic currents (mIPSCs) were recorded (−60 mV) in presence of NBQX (20 μM) and TTX (1 μM). EPSCs and IPSCs were evoked through an ACSF filled monopolar glass electrode placed 200 μm from the recording site in the stria medullaris. AMPA:NMDA ratios of evoked-EPSC were obtained by AMPA-EPSC −60 mV/NMDA-EPSCs at +40 mV. Rectification Index (RI) was computed by […]-60/AMPA-EPSC+40. For the experiments in which high-frequency stimulation trains were used to determine presynaptic release probability, QX314 (5 mM) was included in the internal solution to prevent the generation of sodium spikes. Current-clamp experiments, were performed by a series of current steps (negative to positive) injected to induce action potentials (5-10 pA injection current per step, 800 ms).

With `CN1CCN(C(=O)C2C(C(=O)O)[C@H]3CC[C@@H]2O3)CC1` (stereo partly shown) [LB100] the “FsE-induced inhibition of GABAB-GIRK currents (I-baclofen CTRL vs FsE)” value [1] was “sufficient to rescue”, the I-baclofen current ([1]; slices from CTRL mice) was 88.41±18.64 pA and the I-baclofen current ([1]; slices from FsE mice) was 85.09±0.67 pA. The “FsE-induced inhibition of GABAB-GIRK currents (I-baclofen CTRL vs FsE)” value ([1]; listed as LB-100) was “comparable”, the “Toxicity in combination with standard cytotoxic anti-cancer drugs” value (cancer cells; in vivo) was “without observable increase in toxicity” and the “Anti-cancer activity when used alone” value (cancer cells) was “has anti-cancer activity”. For the same compound, the “Anti-cancer activity when used alone” value (cancer cells; listed as LB-100) was “inhibits the growth of cancer cells”, the “Potentiation in vivo of anti-tumor activity of standard cytotoxic anti-cancer drugs” value (cancer cells; with temozolomide, doxorubicin, docetaxel) was “significantly potentiates” and the “FsE-induced hyperexcitability of LHb neurons (input-output curve, CTRL vs FsE)” value (LHb neurons) was “completely abolished”. The “FsE-induced hyperexcitability of LHb neurons (input-output curve, CTRL vs FsE)” value (LHb neurons; listed as LB-100) was “comparable to control conditions”.
